Measured values: patent publication US20250387771A1, “COMPOSITION COMPRISING BIODEGRADABLE MICROCAPSULES” (priority 2022, published 2025)

Tested on: biological contamination of microcapsule compositions
Test: Preservation of microcapsule compositions against biological contamination over time by conventional preservation agents
Conditions: agent used alone; one month or more

Compound | Prevention of biological contamination of microcapsule compositions over time
O=C(O)c1ccccc1 [benzoic acid] | unable, when used alone, to prevent the biological contamination of microcapsule compositions over time
p-hydroxybenzoic esters | unable, when used alone, to prevent the biological contamination of microcapsule compositions over time
